One data set has as its system liver [肝脏]. It is filed as in vivo, rat. Particulars: for hepatotoxicity: conclusion, given together (27/200/100 mg/kg), 28 days.
Another data set deals with kidney [肾脏]. Kind of data set: Kidney histopathology / renal safety. It is filed as in vivo, rat. The following applies: conclusion; given together (27/200/100 mg/kg), 28 days.
In data set [1] the test system is polycystic ovary syndrome rat model [多囊卵巢综合征大鼠模型]. Kind of data set: Oestrous cycle by vaginal exfoliative cytology, DHEA-induced PCOS rats. The data set is classed as in vivo. The following applies: oral gavage 28 days, then 10 days of vaginal cytology, combination 27/200/100 mg/kg, spironolactone 20 mg/kg.
Data set [2] deals with polycystic ovary syndrome rat model [多囊卵巢综合征动物模型]. Kind of data set: Ovarian wet weight and ovarian coefficient. The following applies: 28 days gavage; ovarian wet weight significantly lower than model group. The data set is classed as in vivo.
A further data set has as its system CYP17 mRNA. Nature of the data set: RT-PCR of ovarian tissue, CYP17 mRNA. It is filed as in vivo, rat. The following applies: vs model group, 28 days gavage.
The subject of another data set is AR mRNA. Kind of data set: RT-PCR of ovarian tissue, AR mRNA. It is filed as in vivo, rat. Particulars: vs model group, 28 days gavage.
A further data set has as its system 3β-HSD mRNA. Nature of the data set: RT-PCR of ovarian tissue, 3β-HSD mRNA. The data set is classed as in vivo, rat. The following applies: vs model group, 28 days gavage.

From patent CN103285022A, “用于制备治疗多囊卵巢综合征的中药单体组合物及其制备方法” (Second Military Medical University SMMU, priority 2013, dated 2013) come the findings set out here.

The structures appear in SMILES notation.

As for `O=C(O)[C@H]1O[C@@H](Oc2cc3oc(-c4ccccc4)cc(=O)c3c(O)c2O)[C@H](O)[C@@H](O)[C@@H]1O` [黄芩苷, 黄芩苷(Baicalin)], the hepatotoxicity result in the data set on liver [肝脏] is listed as “均不具有肝肾毒性”. Moreover, the nephrotoxicity entry in the data set with kidney [肾脏] is “均不具有肝肾毒性”.
Turning to `O=c1c(O)c(-c2ccc(O)c(O)c2)oc2cc(O)cc(O)c12` [槲皮素, 槲皮素(Quercetin)], the hepatotoxicity entry in the data set on liver [肝脏] is reported as “均不具有肝肾毒性”. In addition, the nephrotoxicity entry in the data set on kidney [肾脏] is reported as “均不具有肝肾毒性”.
As for `C[C@H]1COC2=C1C(=O)C(=O)c1c2ccc2c1CCCC2(C)C` [隐丹参酮, 隐丹参酮(Cryptotanshinone)], the hepatotoxicity entry with liver [肝脏] is reported as “均不具有肝肾毒性”. For the same compound, the nephrotoxicity result with kidney [肾脏] is recorded as “均不具有肝肾毒性”.
Regarding `CC(=O)S[C@@H]1CC2=CC(=O)CC[C@]2(C)[C@H]2CC[C@@]3(C)[C@@H](CC[C@@]34CCC(=O)O4)[C@H]12` [螺内酯, 螺内酯(Spironolactone)], the “sexual cycle recovery rate” value in data set [1] is 80%. Moreover, the “increase of ovarian volume and wet weight in model rats, effect of treatment” value in data set [2] is on record as “均可以逆转这种情况”. Besides, in the data set on liver [肝脏] (rat, in vivo), the liver histopathology entry was “个别出现肝细胞脂肪样变性,胞浆透明度增加,细胞胞浆不清,部分细胞核崩解,肝板破坏,汇管区增粗”. The “CYP17 mRNA expression in ovarian tissue” value with CYP17 mRNA is recorded as “显著降低”. Further, the “AR mRNA expression in ovarian tissue” value in the data set on AR mRNA is on record as “显著降低”. Also, the “3β-HSD mRNA expression in ovarian tissue” value with 3β-HSD mRNA was “显著降低”.
